Measurements taken from patent publication US12384786B2 (MINGHUI PHARMACEUTICAL (SHANGHAI) LIMITED, priority 2019, dated 2025).
Where two headings read alike, the source gives them in different places. One block for each compound: values may come before it.

Experiments:
[1] = test system: TMD8 cells (Human diffuse large B lymphoma cells); test: CellTiter-Glo TMD8 inhibitory activity; assay type: cell-based; details: cultured in vitro
Description: CellTiter-Glo kit was used to test the TMD8 inhibitory activity of compounds of examples on Human diffuse large B lymphoma cells cultured in vitro. IC50 values were shown below.

[2] = target: Full-length human BTK (Homo sapiens (Human), UniProt Q06187); test: BTK inhibitory activity, Reaction Biology Corporation kinase assay; details: for inhibition at 0.005 µM: read-out: BTK inhibitory rate(%)
Full-length human BTK, sequence (Q06187 whole entry): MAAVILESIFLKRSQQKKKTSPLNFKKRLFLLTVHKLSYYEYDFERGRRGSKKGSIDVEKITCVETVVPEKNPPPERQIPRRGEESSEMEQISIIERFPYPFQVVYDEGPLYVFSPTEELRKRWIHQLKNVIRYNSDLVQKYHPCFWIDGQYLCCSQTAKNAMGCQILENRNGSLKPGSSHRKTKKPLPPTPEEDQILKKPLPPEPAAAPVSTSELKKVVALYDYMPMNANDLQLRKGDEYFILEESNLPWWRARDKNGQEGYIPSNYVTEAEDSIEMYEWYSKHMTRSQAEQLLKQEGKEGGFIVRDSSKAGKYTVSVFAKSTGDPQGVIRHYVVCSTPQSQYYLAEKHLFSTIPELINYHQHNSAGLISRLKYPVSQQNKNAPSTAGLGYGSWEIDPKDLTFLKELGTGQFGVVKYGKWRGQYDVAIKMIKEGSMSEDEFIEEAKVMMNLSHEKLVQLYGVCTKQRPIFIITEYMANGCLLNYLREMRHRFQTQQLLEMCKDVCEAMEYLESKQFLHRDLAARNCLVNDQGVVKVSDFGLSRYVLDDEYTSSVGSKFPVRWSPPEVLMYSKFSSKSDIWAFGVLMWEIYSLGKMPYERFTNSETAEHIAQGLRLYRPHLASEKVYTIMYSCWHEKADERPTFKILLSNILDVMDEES

[3] = target: Full-length human BTK (C481S) (Homo sapiens (Human), UniProt Q06187, C481S); test: BTK (C481S) inhibitory activity, Reaction Biology Corporation kinase assay; details: for inhibition at 0.005 µM: read-out: BTK(C481S) inhibitory rate(%)
Full-length human BTK (C481S), sequence (Q06187 whole entry C481S): as the sequence (Q06187 whole entry) above, with C481S counted along it

[4] = read-out: IC50(nM) BTK, (a) ATP concentration 30 μM
[5] = IC50(nM) BTK, (d) ATP concentration 50 μM
[6] = IC50(nM) BTK(C481S), (d) ATP concentration 50 μM
[7] = read-out: IC50(nM) BTK, (d) ATP concentration 50 μM
[8] = read-out: IC50(nM) BTK(C481S), (d) ATP concentration 50 μM

inhibition at 0.005 µM [2]: 50%
Structure (SMILES): Nc1ncnc2c1c(-c1ccc(Oc3ccccc3)cc1)nn2[C@@H]1CCC[C@H](O)C1 [Example 2, (1S, 3R)-3-(4-amino-3-(4-phenoxyphenyl)-1H-pyrazolo[3,4-d]pyrimidin-1-yl) cyclohex-1-ol]

inhibition at 0.005 µM [2]: 55% | IC50 ([2]; read-out: IC50(nM) BTK, (c) ATP concentration 10 μM): 3.8 nM | IC50 ([3]; read-out: IC50(nM) BTK(C481S), (c) ATP concentration 10 μM): 1.7 nM
Structure (SMILES): Nc1ncnc2c1c(-c1ccc(Oc3cccc(F)c3)cc1)nn2[C@@H]1CCC[C@@H](O)C1 [Example 15]

IC50 [1]: 0.5 nM | IC50 [2, 4]: 24.9 nM
Structure (SMILES): COc1cccc(Oc2ccc(-c3nn([C@@H]4CCC[C@@H](O)C4)c4ncnc(N)c34)cc2)c1F [Example 19, (1R, 3R)-3-(4-amino-3-(4-(2-fluoro-3-methoxyphenoxy)phenyl)-1H-pyrazolo[3,4-d]pyrimidin-1-yl)cyclohex-1-ol]

IC50 [2, 4]: 26.9 nM
Structure (SMILES): Nc1ncnc2c1c(-c1ccc(Oc3cccc(F)c3)cc1)nn2C1CCC(O)C1 (centres unmarked) [Example 25, 3-(4-amino-3-(4-(3-fluorophenoxy)phenyl)-1H-pyrazolo[3,4-d]pyrimidin-1-yl) cyclopentane-1-ol]

IC50 [1]: 29 nM | inhibition at 0.005 µM [2]: 62% | inhibition at 0.005 µM [3]: 53%
Structure (SMILES): Nc1ncnc2c1c(-c1ccc(Oc3ccccc3)cc1)nn2C1CCC(O)C1 (centres unmarked) [Example 5]

IC50 [1]: 41 nM | IC50 [2, 4]: 18.8 nM
Structure (SMILES): Nc1ncnc2c1c(-c1ccc(Oc3ccccc3)cc1F)nn2[C@@H]1CCC[C@@H](O)C1 [Example 16, (1R, 3R)-3-(4-amino-3-(2-fluoro-4-phenoxyphenyl)-1H-pyrazolo[3,4-d]pyrimidin-1-yl)cyclohex-1-ol]

IC50 [1]: 33 nM | IC50 [2, 4]: 24.1 nM
Structure (SMILES): Nc1ncnc2c1c(-c1ccc(Oc3ccccc3F)cc1)nn2[C@@H]1CCC[C@@H](O)C1 [Example 17, (1R,3R)-3-(4-amino-3-(4-(2-fluorophenoxy)phenyl)-1H-pyrazolo[3,4-d]pyrimidin-1-yl)cyclohex-1-ol]

IC50 [1]: 183 nM | IC50 [2, 4]: 49.1 nM
Structure (SMILES): Nc1ncnc2c1c(-c1ccc(Oc3c(F)cccc3F)cc1)nn2[C@@H]1CCC[C@@H](O)C1 [Example 18, (1R, 3R)-3-(4-amino-3-(4-(2,6-difluorophenoxy)phenyl)-1H-pyrazolo[3,4-d]pyrimidin-1-yl)cyclohex-1-ol]

IC50 [2, 7]: 2.6 nM | IC50 [3, 8]: 0.9 nM
Structure (SMILES): COc1cccc(Oc2ccc(-c3nn([C@H]4CCC[C@H](O)C4)c4ncnc(N)c34)cc2)c1F [Example 32, (1S,3S)-3-(4-amino-3-(4-(2-fluoro-3-methoxyphenoxy)phenyl)-1H-pyrazolin[3,4-d]pyrimidin-1-yl)cyclohexanol]

IC50 [2, 4]: 19.2 nM
Structure (SMILES): Nc1ncnc2c1c(-c1ccc(Oc3cccc(O)c3F)cc1)nn2[C@@H]1CCC[C@@H](O)C1 [Example 33, (1R,3R)-3-(4-(4-amino-1-(3-hydroxycyclohexyl)-1H-pyrazolo[3,4-d]pyrimidin-3-yl)phenoxy)-2-fluorophenol]

IC50 [1]: 8 nM
Structure (SMILES): COc1cccc(Oc2ccc(-c3nn(C4CCC(O)C4)c4ncnc(N)c34)cc2)c1F (centres unmarked) [Example 22, 3-(4-amino-3-(4-(2-fluoro-3-methoxyphenoxy)phenyl)-1H-pyrazolo[3,4-d]pyrimidin-1-yl)cyclopentane-1-ol]

Second part, the compound before the results:

Structure (SMILES): C[C@]1(O)CC[C@H](n2nc(-c3ccc(Oc4ccccc4)cc3)c3c(N)ncnc32)CC1 [Example 9B, (1r,4r)-4 (4-amino-3-(4-phenoxyphenyl)-1H-pyrazolo[3,4-d]pyrimidin-1-yl]-1-methylcyclohexane-1-ol]
IC50 [1]: 37 nM | inhibition at 0.005 µM [2]: 46% | inhibition at 0.005 µM [3]: 63%

Structure (SMILES): C[C@]1(O)CC[C@@H](n2nc(-c3ccc(Oc4ccccc4)cc3)c3c(N)ncnc32)CC1 [Example 9A, (1s,4s)-4-(4-amino-3-(4-phenoxyphenyl)-1H-pyrazolo[3,4-d]pyrimidin-1-yl]-1-methylcyclohexane-1-ol]
IC50 [1]: 72 nM | inhibition at 0.005 µM [2]: 57% | inhibition at 0.005 µM [3]: 77%

Structure (SMILES): COc1cccc(Oc2ccc(-c3nn(C4CCCCC4)c4ncnc(N)c34)cc2)c1F [Example 29, 1-cyclohexyl-3-(4-(2-fluoro-3-methoxyphenoxy)phenyl)-1H-pyrazolo[3,4-d]pyrimidin-4-amine, reference compound]
IC50 [2, 4]: 64.1 nM

Structure (SMILES): CC1(O)CCC(n2nc(-c3ccc(Oc4ccccc4)cc3)c3c(N)ncnc32)C1 (centres unmarked) [Example 6, 3-(4-amino-3-(4-phenoxyphenyl)-1H-pyrazolo[3,4-d]pyrimidin-1-yl)-1-methylcyclopentanol]
IC50 [1]: 17 nM | inhibition at 0.005 µM [2]: 70% | inhibition at 0.005 µM [3]: 63%

Structure (SMILES): COc1cccc(Oc2ccc(-c3nn(C4CCC(CO)OC4)c4ncnc(N)c34)cc2)c1F (single isomer, unassigned) [Example 30 Peak2-2, (5-(4-amino-3-(4-(2-fluoro-3-methoxyphenoxy)phenyl)-1H-pyrazolo[3,4-d]pyrimidin-1-yl)tetrahydro-2 h-pyran-2-yl)methanol]
IC50 [2, 5]: 5 nM | IC50 [3, 6]: 2.8 nM

Structure (SMILES): COc1cccc(Oc2ccc(-c3nn(C4CCC(CO)OC4)c4ncnc(N)c34)cc2)c1F (single isomer, unassigned) [Example 30 Peak1-2, (5-(4-amino-3-(4-(2-fluoro-3-methoxyphenoxy)phenyl)-1H-pyrazolo[3,4-d]pyrimidin-1-yl)tetrahydro-2 h-pyran-2-yl)methanol]
IC50 [2, 5]: 8.5 nM | IC50 [3, 6]: 6.7 nM

Structure (SMILES): C[C@]1(O)CCC[C@@H](n2nc(-c3ccc(Oc4ccccc4)cc3)c3c(N)ncnc32)C1 [Example 3A, (1s, 3R)-3-(4-amino-3-(4-phenoxyphenyl)-1H-pyrazolo[3,4-d]pyrimidin-1-yl)-1-methylcyclohexane-1-ol]
IC50 [1]: 208 nM

Structure (SMILES): Nc1ncnc2c1c(-c1ccc(Oc3ccccc3)cc1)nn2C1CCC(O)(C(F)(F)F)C1 (centres unmarked) [Example 7, 3-(4-amino-3-(4-phenoxyphenyl)-1H-pyrazolo[3,4-d]pyrimidin-1-yl)-1-(trifluoromethyl) Cyclopentanol]
IC50 [1]: 504 nM

Structure (SMILES): C[C@@]1(O)CCC[C@@H](n2nc(-c3ccc(Oc4ccccc4)cc3)c3c(N)ncnc32)C1 [Example 3B, (1R, 3R)-3-(4-amino-3-(4-phenoxyphenyl)-1H-pyrazolo[3,4-d]pyrimidin-1-yl)-1-methylcyclohexane-1-ol]
IC50 [1]: 200 nM

Structure (SMILES): COc1cccc(Oc2ccc(-c3nn([C@H]4CC[C@H](O)CC4)c4ncnc(N)c34)cc2)c1F [Example 21, (1r, 4r)-4-(4-amino-3-(4-(2-fluoro-3-methoxyphenoxy)phenyl)-1H-pyrazolo[3,4-d]pyrimidin-1-yl)cyclohex-1-ol]
IC50 [2, 4]: 16 nM

Structure (SMILES): COc1cccc(Oc2ccc(-c3nn(C4CCC(CO)OC4)c4ncnc(N)c34)cc2)c1F (single isomer, unassigned) [Example 30 Peak1-1, (5-(4-amino-3-(4-(2-fluoro-3-methoxyphenoxy)phenyl)-1H-pyrazolo[3,4-d]pyrimidin-1-yl)tetrahydro-2 h-pyran-2-yl)methanol]
IC50 [2, 5]: 3.8 nM | IC50 [3, 6]: 3.7 nM

Structure (SMILES): COc1cccc(Oc2ccc(-c3nn(C4CCC(O)C(O)C4)c4ncnc(N)c34)cc2)c1F (centres unmarked) [Example 28, 4-(4-amino-3-(4-(2-fluoro-3-methoxyphenoxy)phenyl)-1H-pyrazolo[3,4-d]pyrimidin-1-yl)cyclohexane-1,2-diol]
IC50 [2, 7]: 1.7 nM | IC50 [3, 8]: 0.6 nM

Structure (SMILES): COc1cccc(Oc2ccc(-c3nn(C4CCC(CO)OC4)c4ncnc(N)c34)cc2)c1F (single isomer, unassigned) [Example 30 Peak2-1, (5-(4-amino-3-(4-(2-fluoro-3-methoxyphenoxy)phenyl)-1H-pyrazolo[3,4-d]pyrimidin-1-yl)tetrahydro-2 h-pyran-2-yl)methanol]
IC50 [2, 5]: 1.8 nM | IC50 [3, 6]: 1.1 nM
